{"source": "patent US20240261398A1", "about": "(priority 2018, published 2024)", "key": {"[1]": {"tested_on": "A/California/07/2009 virus (H1N1; CA07)", "parameters": "species or system BALB/c mice", "conditions": "mouse, in vivo"}, "[2]": {"tested_on": "influenza virus", "type": "in vivo, mice"}, "[3]": {"tested_on": "A/California/07/2009 virus (H1N1; CA07)", "parameters": "species or system BALB/c mice", "conditions": "mouse, in vivo", "remark": "listed apart in the source"}, "[4]": {"tested_on": "Ebola GP protein", "type": "in vivo, BALB/c mice", "conditions": "for Mean value of antibody titers, Vaccine + compound: Ebola VLP 1 μg/dose + compound, i.m. twice, serum two weeks after second immunization, mean of 4 mice; for Antibody titer ratio (a): [VLP + candidate compound]/[VLP + AddaVax]; for Mean value of antibody titers, Only compound (c): compound alone, mice treated as in the influenza adjuvant screening"}, "[5]": {"conditions": "nasal immunization with vaccine + compound, 100 μg/dose (saponin 10 μg/dose), Day 0, 14, 28"}}, "note": "Where two headings read alike, the source gives them in different places.", "data": [{"smiles": "O.O=P([O-])([O-])OCC(O)CO.[Ca+2]", "note": "(stereo not drawn)", "values": [{"measurement": "Antibody titers in primary screening, Vaccine + compound", "setting": "[1]", "value": 1920.00}, {"measurement": "Relative ratio of antibody titer to alum (compound/alum), primary screening", "setting": "[1]", "value": 1.71}, {"measurement": "Antibody titers (IgG)", "setting": "[2]; mouse, in vivo", "value": 261.25}, {"measurement": "Antibody titers in secondary screening, Vaccine + compound", "setting": "[3]", "value": 4800}, {"measurement": "Relative ratio of antibody titer to alum (compound/alum), secondary screening", "setting": "[3]", "value": 3.33}]}, {"smiles": "CCO", "note": "[Ethanol]", "values": [{"measurement": "Mean value of antibody titers, Vaccine + compound", "setting": "[4]", "value": 140.00}, {"measurement": "Antibody titer ratio (a)", "setting": "[4]", "value": 0.23}, {"measurement": "Mean value of antibody titers, Only compound (c)", "setting": "[4]", "value": "<10"}, {"measurement": "Mean value of antibody titers, Only compound", "setting": "[3]", "value": "<10"}, {"measurement": "Mean value of antibody titers, Vaccine + compound", "setting": "[3]", "value": 400.00}, {"measurement": "Relative ratio of antibody titer to alum (Compound/alum)", "setting": "[3]", "value": 0.56}]}, {"smiles": "[O]=[Zn]", "note": "[Zinc oxide]", "values": [{"measurement": "Mean value of antibody titers, Vaccine + compound", "setting": "[4]", "value": 400.00}, {"measurement": "Antibody titer ratio (a)", "setting": "[4]", "value": 0.67}, {"measurement": "Mean value of antibody titers, Only compound (c)", "setting": "[4]", "value": "<10"}]}, {"smiles": "CC(/C=C/C=C(C)/C=C/C(=O)O)=C\\C=C\\C=C(C)\\C=C\\C=C(C)\\C=C\\C(=O)O", "note": "(stereo in doubt) [Norbixin]", "values": [{"measurement": "Antibody titers in primary screening, Vaccine + compound", "setting": "[1]", "value": 7680.00}, {"measurement": "Relative ratio of antibody titer to alum (compound/alum), primary screening", "setting": "[1]", "value": 8.00}, {"measurement": "Antibody titers (IgG)", "setting": "[2]; mouse, in vivo", "value": 340}, {"measurement": "Relative ratio of antibody titer to alum (compound/alum), secondary screening", "setting": "[3]", "value": 5.14}, {"measurement": "virus-specific antibody titers compared with the alum adjuvant", "setting": "[3]", "value": "equal to or higher than the alum adjuvant did"}]}, {"smiles": "C[C@@H]1O[C@@H](OC[C@H]2O[C@@H](Oc3c(-c4ccc(O)c(O)c4)oc4cc(O)cc(O)c4c3=O)[C@H](O)[C@@H](O)[C@@H]2O)[C@H](O)[C@H](O)[C@H]1O", "note": "[Rutin hydrate]", "values": [{"measurement": "Antibody titers in primary screening, Vaccine + compound", "setting": "[1]; hydrate", "value": 1280.00}, {"measurement": "Antibody titers (IgG)", "setting": "[2]; [5]", "value": 280}, {"measurement": "Antibody titers in secondary screening, Vaccine + compound", "setting": "[3]; hydrate", "value": 720}]}, {"smiles": "C[C@@H]1O[C@@H](O[C@H]2[C@H](Oc3cc(O)c4c(c3)O[C@H](c3ccc(O)cc3)CC4=O)O[C@H](CO)[C@@H](O)[C@@H]2O)[C@H](O)[C@H](O)[C@H]1O", "note": "[Naringin]", "values": [{"measurement": "Antibody titers in primary screening, Vaccine + compound", "setting": "[1]", "value": 2133.33}, {"measurement": "Antibody titers in secondary screening, Vaccine + compound", "setting": "[3]", "value": 2240}]}, {"smiles": "OC[C@H]1O[C@@H]2O[C@H]3[C@H](O)[C@@H](O)[C@@H](O[C@H]4[C@H](O)[C@@H](O)[C@@H](O[C@H]5[C@H](O)[C@@H](O)[C@@H](O[C@H]6[C@H](O)[C@@H](O)[C@@H](O[C@H]7[C@H](O)[C@@H](O)[C@@H](O[C@H]8[C@H](O)[C@@H](O)[C@@H](O[C@H]1[C@H](O)[C@H]2O)O[C@@H]8CO)O[C@@H]7CO)O[C@@H]6CO)O[C@@H]5CO)O[C@@H]4CO)O[C@@H]3CO", "note": "[β-Cyclodextrin]", "values": [{"measurement": "Antibody titers in primary screening, Vaccine + compound", "setting": "[1]", "value": 373.33}, {"measurement": "Relative ratio of antibody titer to alum (compound/alum), primary screening", "setting": "[1]", "value": 0.22}, {"measurement": "Antibody titers in secondary screening, Vaccine + compound", "setting": "[3]", "value": 1440}, {"measurement": "Relative ratio of antibody titer to alum (compound/alum), secondary screening", "setting": "[3]", "value": 0.90}]}, {"smiles": "CC=Cc1ccc(O)c(OC)c1", "note": "[Isoeugenol]", "values": [{"measurement": "Antibody titers in primary screening, Vaccine + compound", "setting": "[1]", "value": 2986.67}, {"measurement": "Antibody titers in secondary screening, Vaccine + compound", "setting": "[3]", "value": 140}]}, {"smiles": "Cc1cc2nc3c(=O)[nH]c(=O)nc-3n(C[C@H](O)[C@H](O)[C@H](O)CO)c2cc1C", "note": "[Riboflavin]", "values": [{"measurement": "Antibody titers in primary screening, Vaccine + compound", "setting": "[1]", "value": 2560.00}, {"measurement": "Antibody titers (IgG)", "setting": "[2]; [5]", "value": 880}, {"measurement": "Antibody titers in secondary screening, Vaccine + compound", "setting": "[3]", "value": 2240}]}]}
